The NIST ThermoML archive (doi:10.1016/j.jct.2017.07.024)

What was measured:
[1] = refractive index (Na D-line) (dimensionless); wn = mass fraction of the nth substance listed; settings: 100 kPa, Liquid, Standard Abbe refractometry
[2] = wn = mass fraction of the nth substance listed; settings: for surface tension liquid-gas: Maximal bubble pressure; for mass density: 100 kPa, Liquid, Vibrating tube method

CCCCCCn1cc[n+](C)c1.C[C@@H](O)[C@H](N)C(=O)[O-] [1-hexyl-3-methylimidazolium DL-threoninate] + O
Settings	mass density, [2] [kg/m3]	refractive index, [1]	surface tension liquid-gas, [2] [mN/m]
288.15 K, w2 = 0.006	1089.58	1.5042	37.4
288.15 K, w2 = 0.0091	1089.35	1.5038	37.6
288.15 K, w2 = 0.012	1089.16	1.5034	37.8
288.15 K, w2 = 0.0149	1088.99	1.5031	38
288.15 K, w2 = 0.0172	1088.81	1.5028	38.2
293.15 K, w2 = 0.006	1086.27	1.5026	37
293.15 K, w2 = 0.0091	1086.04	1.5023	37.2
293.15 K, w2 = 0.012	1085.85	1.502	37.4
293.15 K, w2 = 0.0149	1085.68	1.5017	37.6
293.15 K, w2 = 0.0172	1085.5	1.5014	37.8
298.15 K, w2 = 0.006	1082.96	1.5012	36.7
298.15 K, w2 = 0.0091	1082.73	1.5009	36.9
298.15 K, w2 = 0.012	1082.54	1.5006	37.1
298.15 K, w2 = 0.0149	1082.37	1.5003	37.3
298.15 K, w2 = 0.0172	1082.19	1.5	37.5
303.15 K, w2 = 0.006	1079.61	1.4994	36.4
303.15 K, w2 = 0.0091	1079.38	1.4991	36.7
303.15 K, w2 = 0.012	1079.19	1.4988	36.9
303.15 K, w2 = 0.0149	1079.01	1.4985	37.1
303.15 K, w2 = 0.0172	1078.82	1.4982	37.3
308.15 K, w2 = 0.006	1076.29	1.4981	36.1
308.15 K, w2 = 0.0091	1076.06	1.4978	36.4
308.15 K, w2 = 0.012	1075.86	1.4974	36.6
308.15 K, w2 = 0.0149	1075.69	1.4971	36.8
308.15 K, w2 = 0.0172	1075.49	1.4968	37
313.15 K, w2 = 0.006	1073	1.4964	35.8
313.15 K, w2 = 0.0091	1072.76	1.4961	36.1
313.15 K, w2 = 0.012	1072.56	1.4958	36.3
313.15 K, w2 = 0.0149	1072.38	1.4955	36.5
313.15 K, w2 = 0.0172	1072.18	1.4952	36.7
318.15 K, w2 = 0.006	1069.54	1.495	35.5
318.15 K, w2 = 0.0091	1069.29	1.4947	35.8
318.15 K, w2 = 0.012	1069.09	1.4944	36
318.15 K, w2 = 0.0149	1068.91	1.4941	36.3
318.15 K, w2 = 0.0172	1068.71	1.4938	36.5
323.15 K, w2 = 0.006	1066.37	1.4933	35.2
323.15 K, w2 = 0.0091	1066.12	1.4929	35.5
323.15 K, w2 = 0.012	1065.91	1.4926	35.7
323.15 K, w2 = 0.0149	1065.72	1.4922	36
323.15 K, w2 = 0.0172	1065.51	1.4919	36.2
328.15 K, w2 = 0.006	1063.07	1.4918	34.9
328.15 K, w2 = 0.0091	1062.82	1.4914	35.2
328.15 K, w2 = 0.012	1062.61	1.4911	35.4
328.15 K, w2 = 0.0149	1062.42	1.4907	35.7
328.15 K, w2 = 0.0172	1062.21	1.4904	35.9

CCCn1cc[n+](C)c1.C[C@@H](O)[C@H](N)C(=O)[O-] [1-propyl-3-methylimidazolium DL-threoninate] + O
Settings	mass density, [2] [kg/m3]	refractive index, [1]	surface tension liquid-gas, [2] [mN/m]
288.15 K, w2 = 0.0065	1150.46	1.5132	42
288.15 K, w2 = 0.0092	1150.15	1.5127	42.2
288.15 K, w2 = 0.0116	1149.81	1.5121	42.4
288.15 K, w2 = 0.0135	1149.56	1.5117	42.6
288.15 K, w2 = 0.0161	1149.22	1.5111	42.8
293.15 K, w2 = 0.0065	1147.75	1.5116	41.7
293.15 K, w2 = 0.0092	1147.33	1.5111	41.9
293.15 K, w2 = 0.0116	1146.94	1.5105	42.1
293.15 K, w2 = 0.0135	1146.61	1.5101	42.3
293.15 K, w2 = 0.0161	1146.22	1.5095	42.5
298.15 K, w2 = 0.0065	1143.37	1.5101	41.3
298.15 K, w2 = 0.0092	1142.89	1.5096	41.6
298.15 K, w2 = 0.0116	1142.43	1.509	41.8
298.15 K, w2 = 0.0135	1142.12	1.5086	42
298.15 K, w2 = 0.0161	1141.66	1.508	42.2
303.15 K, w2 = 0.0065	1139.97	1.5088	41
303.15 K, w2 = 0.0092	1139.49	1.5082	41.3
303.15 K, w2 = 0.0116	1139.07	1.5077	41.5
303.15 K, w2 = 0.0135	1138.7	1.5073	41.7
303.15 K, w2 = 0.0161	1138.27	1.5068	41.9
308.15 K, w2 = 0.0065	1136.59	1.5074	40.7
308.15 K, w2 = 0.0092	1136.11	1.5069	41
308.15 K, w2 = 0.0116	1135.68	1.5064	41.2
308.15 K, w2 = 0.0135	1135.31	1.5061	41.4
308.15 K, w2 = 0.0161	1134.87	1.5056	41.6
313.15 K, w2 = 0.0065	1133.16	1.506	40.4
313.15 K, w2 = 0.0092	1132.71	1.5055	40.7
313.15 K, w2 = 0.0116	1132.22	1.5052	40.9
313.15 K, w2 = 0.0135	1131.88	1.5048	41.1
313.15 K, w2 = 0.0161	1131.4	1.5044	41.3
318.15 K, w2 = 0.0065	1129.72	1.5044	40.1
318.15 K, w2 = 0.0092	1129.19	1.504	40.4
318.15 K, w2 = 0.0116	1128.78	1.5036	40.6
318.15 K, w2 = 0.0135	1128.43	1.5033	40.8
318.15 K, w2 = 0.0161	1127.95	1.5028	41.1
323.15 K, w2 = 0.0065	1126.27	1.5029	39.8
323.15 K, w2 = 0.0092	1125.8	1.5024	40.1
323.15 K, w2 = 0.0116	1125.32	1.5021	40.4
323.15 K, w2 = 0.0135	1124.96	1.5018	40.6
323.15 K, w2 = 0.0161	1124.48	1.5013	40.9
328.15 K, w2 = 0.0065	1122.82	1.5015	39.5
328.15 K, w2 = 0.0092	1122.34	1.5011	39.8
328.15 K, w2 = 0.0116	1121.86	1.5007	40.1
328.15 K, w2 = 0.0135	1121.5	1.5004	40.4
328.15 K, w2 = 0.0161	1121	1.4999	40.7
